Measured values from patent publication US20210121482A1, “WITHANOLIDES FOR THE TREATMENT OF CACHEXIA” (University of Louisville Research Foundation, Inc., priority 2019, published 2021).

Experiments:
TA, GA and QF muscles = assay: Skeletal muscle weight and myofiber CSA (Example 1); assay type: in vivo, mice
Description: Histology and Morphometric Analysis of Skeletal Muscle: The tibialis anterior (TA), gastrocnemius (GA) and quadriceps femoris (QF) of the mice were isolated, flash frozen in liquid nitrogen, mounted in OCT embedding medium, and then sectioned using a microtome cryostat. To assess tissue morphology, 10 μm thick transverse sections were cut from the mid-belly of the muscle and then subjected to hematoxylin and eosin (H&E) staining. Images of H&E-stained TA/GA/QF muscle sections were quantified using Image J and/or Fiji software to measure myofiber cross-sectional area (CSA). Myofiber CSA was calculated by analyzing ˜350-500 myofibers per muscle.

phospho-p65 (NF-κB) = assay: Western blot and IHC of p65 in tumor samples; assay type: in vivo, mice; conditions: 2 and 6 mg/kg
Method: Immunohistochemistry of Tumor Tissue: For the detection of various proteins, 10 μm thick sections were made from the midsection of tumor samples. A hydrophobic boundary was drawn around the sections and then they were fixed in 3.7% formaldehyde solution for 10 minutes. The slides were washed three times with 1×PBS for 5 minutes each. The sections were then blocked in 2% BSA in PBS for 30 minutes. The sections were then incubated with primary antibodies (1:100 dilution) overnight in a humidity chamber at 4° C. The sections were then washed three times with 1×PBS for 5 minutes. The slides were incubated in appropriate secondary antibodies (1:2000 dilution) for 45-60 minutes. Sections were counterstained with DAPI (1:2500 dilution) for 5 minutes to visualize nuclei. Slides were then washed twice in 1×PBS for 5 minutes, and then mounted for visualization. Nonspecific background staining was determined by performing the above protocol with omitting the inclusion of the primary antibodies. Refer to Table 2 for a complete list of antibodies utilized.
Protein Extraction and Western Blotting: Tumor samples were homogenized in chilled RIPA buffer (Sigma) supplemented with a Complete Mini Protease Inhibitor tablet (Roche Molecular Biochemicals, Indianapolis, Ind.). Tissue lysates were centrifuged at 10,000 RPM and the supernatants were collected. Protein concentration for each sample was determined using the Bradford reagent method (Bio-Rad), according to manufacturer's instructions. Protein lysates ([…]) were separated on 10% SDS-PAGE gels at 100 volts for 2 h. The proteins were transferred to nitrocellulose membranes at 100 volts for 90 minutes. The membranes were blocked with 5% non-fat milk in Tris-buffered saline supplemented with Tween®20 (0.5%; TBS-T) for 30-60 minutes. The membranes were then washed 3 times with TBS-T for 5 minutes. The membranes were then incubated with primary antibody at 4° C. overnight. […]

[1] = test system: A2780 ovarian cancer cells; assay: Tumor burden: free peritoneal tumors and bilateral ovaries (Example 3); assay type: in vivo, mice; conditions: tumor-bearing
Description: Experimental tumors were induced as described in Example 2.
No significant difference in tumor weight between the two doses of WFA was observed (p=0.65).
The IP tumors were metastasized to select organs/anatomic regions known to be highly estrogen-responsive, including free-peritoneal tumors shown in FIG. 19D and bilateral ovaries shown in FIG. 19E.

[2] = test system: left ventricular systolic and diastolic function; assay: Echocardiography; assay type: in vivo, mice
Method: Left ventricular (LV) systolic and diastolic function were evaluated by transthoracic echocardiography using a Vevo 3100 system and a 40 MHz linear probe (FUJIFILM VisualSonics Inc., Toronto, Ontario, Canada). Mice were anesthetized with isoflurane, maintained at an equivalent surgical depth of anesthesia (induction chamber at 5% with 1.5-2.0 L/min 02 flow, followed by 1.5-2.0% with 1.5-2.0 L/min 02 flow), and placed in the supine position. The skin over the thorax was shaved and then briefly subjected to a depilatory cream. Body temperature was maintained at 37-38° C., and heart rate was monitored using the accompanying Vevo Imaging Station. Briefly, variables that represent diastolic function (E/A ratio, isovolumetric relaxation time (IVRT), and (E/e′) were measured during the resting condition from an apical four-chamber view with conventional pulsed wave tissue Doppler. The E/A ratio was calculated from the peak velocity flow in early diastole (the E wave) to the peak velocity flow in late diastole caused by atrial contraction (the A wave) during resting conditions.
An image was captured along the parasternal short axis and analyzed offline using the Vevo® Lab software. Standard measures of LV structure [i.e., LV internal diameter (LVID) and LV posterior wall thickness (PWT)] and function [i.e., stroke volume (SV), cardiac output (CO), and ejection fraction (EF)] were obtained along the parasternal short axis during resting and stress conditions. In M-mode, wall thickness and chamber dimensions across the sample line were used to calculate anatomical and functional parameters. End-diastolic and end-systolic volumes were estimated from LVID […]. Results from five cardiac cycles during expiration were averaged together and used for between-group and within-group comparisons. Continuous ECG and heart rate monitoring were performed over a period of one hour while the other measurements were collected.

Ang II = assay: Plasma Ang II ELISA; assay type: in vivo, mice; conditions: tumor-bearing
Method: Plasma Ang II levels were measured with an enzyme-linked immunosorbent assay (ELISA). Blood samples were collected in tubes containing ethylenediaminetetraacetic acid (EDTA) (25 mM), o-phenanthroline (0.44 mM), pepstatin A (0.12 mM), and p-hydroxymercuribenzoic acid (1 mM) and then centrifuged at 1200×g for 10 min. The plasma was collected and stored at −80° C. until further processing. Ang II levels were quantified by using a commercially available ELISA kit according to the manufacturer's instructions (Sigma-Aldrich Catalog #MAK190).

CAOV3 = CAOV3 cells; cited from earlier work
[3] = 2 and 6 mg/kg, vs control group
[4] = 2 and 6 mg/kg, vs vehicle treated group
[5] = tumor-bearing, 2 and 4 mg/kg, vs tumor-bearing vehicle

In the case of `CC1=C(CO)C(=O)O[C@@H]([C@@H](C)[C@H]2CC[C@H]3[C@@H]4C[C@H]5O[C@]56[C@@H](O)C=CC(=O)[C@]6(C)[C@H]4CC[C@]23C)C1` [WFA, (4β,5β,6β,22R)-4,27-Dihydroxy-5,6:22,26-diepoxyergosta-2,24-diene-1,26-dione], the “normalized wet weight of gastrocnemius (GA)” value (TA, GA and QF muscles; 2 mg/kg, vs control group) is reported as “significant reduction in normalized wet weight”, the “myofibrillar CSA in GA muscle” value (TA, GA and QF muscles; 2 mg/kg, vs control group (p=0.09)) is reported as “restoration of myofibrillar CSA” and the “wet weight of quadriceps femoris (QF)” value (TA, GA and QF muscles; 6 mg/kg, vs control group) is reported as “significant reduction in wet weight”. The “restoration of myofibrillar CSA in GA muscle” value (TA, GA and QF muscles; 6 mg/kg, vs control group (p=0.007)) was “not those treated with 6 mg/kg of WFA”, the “average myofiber CSA (TA and QF)” value (TA, GA and QF muscles; [3]) was “significant reduction in average myofiber CSA” and the “normalized wet weight of tibialis anterior (TA)” value (TA, GA and QF muscles; [3]) was “significant reduction in normalized wet weight”. The “average myofiber CSA (TA, GA, QF)” value (TA, GA and QF muscles; [4]) was “significantly greater than the vehicle treated group”, the “normalized muscle weights (TA, GA, QF)” value (TA, GA and QF muscles; [4]) was “no difference between the vehicle and WFA treated groups” and the “phospho-p65 co-localized with DAPI (nuclear translocation)” value (phospho-p65 (NF-κB)) was “impairment in the translocation of p65 to the nucleus”. For the same molecule, the “phospho-p65 staining in tumor cells (IHC)” value (phospho-p65 (NF-κB); vs vehicle treated group) was “severely diminished”, the “protein levels of phospho- and total p65 in tumor (immunoblot)” value (phospho-p65 (NF-κB); vs vehicle treated group) was “robust decrease in the protein levels of phospho- and total p65” and the “normalized weights of the bilateral ovaries” value ([1]; WFA 2 mg/kg) was 10.38±1.32 mg/g IBW. The “weight of visible tumors” value ([1]; WFA 2 mg/kg) was 1.6 ± 0.19 g, the “normalized weights of the bilateral ovaries” value ([1]; WFA 4 mg/kg) was 12.05±2.09 mg/g IBW and the “weight of visible tumors” value ([1]; WFA 4 mg/kg) was 1.9 ± 0.35 g. For the same molecule, the “isovolumetric relaxation time (IVRT)” value ([2]; WFA vs vehicle within tumor-free or tumor-bearing groups) was “no significant differences within the tumor-free or tumor-bearing groups”, the “cardiac output (CO)” value ([2]; tumor-bearing mice, WFA treatment) was “similarly normalized” and the LV mass [2, 5] was “significant increase in LV mass”. For the same molecule, the “diastolic dysfunction (E/A ratio, E/e′ ratio)” value [2, 5] was “partially improved”, the “fractional shortening (FS)” value ([2]; tumor-bearing, WFA 2 mg/kg) was 57.8±3.6% and the “fractional shortening (FS)” value ([2]; tumor-bearing, WFA 4 mg/kg) was 55.3±3.2%. For the same molecule, the diastolic function ([2]; tumor-free animals) was “did not affect diastolic function in tumor-free animals”, the “HR and CO” value ([2]; tumor-free mice, WFA treatment) was “did not have any effect on HR or CO in tumor-free mice” and the heart rate ([2]; tumor-free or tumor-bearing WFA-treated groups vs tumor-free vehicle) was “No significant differences in heart rate”. For the same molecule, the LV mass ([2]; tumor-free, vehicle vs either dose of WFA) was “No significant difference in LV mass”, the “plasma Ang II levels” value (Ang II; WFA 2 mg/kg) was 2.15 ± 0.015 ng/mL and the “plasma Ang II levels” value (Ang II; WFA 4 mg/kg) was 2.07 ± 0.08 ng/mL. For the same molecule, the “cell cycle arrest and apoptosis” value (CAOV3) was “induces cell cycle arrest and the induction of apoptosis”.
